Results from patent US20230190707A1, “COMPOSITIONS AND METHODS FOR ENHANCING CANCER IMMUNOTHERAPY” (FRED HUTCHINSON CANCER CENTER, priority 2020, published 2023).

Key:
[1] = system: CD8^+ T cells; experiment: IFNγ ELISpot with indisulam-treated B16-F10 cells as antigen-presenting cells; format: cell-based, mouse; settings: B16-F10 treated with indisulam 1 μM for 96 hours
Description: Such cells were then non-enzymatically harvested, washed repeatedly to remove IFNγ, and irradiated to 60 Gy from a ^60Co source to inhibit growth and further upregulate MHC I. […] IFNγ ELISpot was performed as per manufacturer's instructions (BD Biosciences, Cat. 551083). Spots were imaged and quantified on an Immunospot® analyzer (Cellular Technology Limited, Cleveland, Ohio).

[2] = system: B16-F10 cells; experiment: Engraftment of indisulam-treated B16-F10 cells into hosts with immune perturbations or with B2m knockout; format: in vivo, mouse
Source text: B16-F10, CT26.WT (CT26), and LLC cells were obtained from ATCC (Cat. CRL-6475, CRL-2638, and CRL-1642 respectively). MB49 cells were obtained from MilliporeSigma (Cat. SCC148, Burlington, Mass.); MC38 cells were obtained from Kerafast (Cat. ENH204-FP, Boston, Mass.). B16-F10 and MC38 cells expressing chicken ovalbumin (B16ova and MC38ova) were a kind gift of Jeff Ravetch (Rockefeller University, New York, N.Y.). To generate β2 microglobulin deficient cell lines for in vitro experiments, four candidate sgRNAs for mouse β2microglobulin (#1 […] (SEQ ID NO:2), #2 […] (SEQ ID NO:3), #3 […] (SEQ ID NO:4), #4 […]) (SEQ ID NO:5), or nontargeting control ([…]) (SEQ ID NO:6) were cloned into pSpCas9(BB)-2A-Puro (PX459) as previously described (Ran, F. A., et al. (2013). Genome engineering using the CRISPR-Cas9 system. Nat Protoc 8, 2281-2308, incorporated herein by reference in its entirety) and used to engineer deficient MC38, B16-F10, and CT26 cell lines via transfection using XtremeGene 9 reagent as per manufacturer's instructions (MilliporeSigma Cat. 6365809001) followed by puromycin selection at 10 μg/mL for three days. Polyclonal cell populations were obtained by flow sorting for H-2K^b/D^b and P2 microglobulin double-negative cells, and gene knockout further confirmed by stimulating a culture of these sorted cells for 48 hours with 10 U/mL mouse IFNγ and analyzing for the same markers. For in vivo experiments, lentiCas9-Blast was used to generate Cas9-expressing B16-F10 cells. […]
Unless otherwise specified, syngeneic B6 or Balb/c mice were engrafted subcutaneously on bilateral flanks with MC38, B16-F10, CT26 or LLC tumor cells at the following doses: MC38 10^6 cells, B16-F10 0.5×10^6 cells, CT26 0.25×10^6 cells, LLC 0.25×10^6 cells. Tumors were measured serially twice or three times weekly and tumor volumes were estimated by length×width×height. Animals were monitored daily for survival and weighed twice weekly. […]

In the case of NS(=O)(=O)c1ccc(S(=O)(=O)Nc2cccc3c(Cl)c[nH]c23)cc1 [indisulam], the “antigen-specific T cell activation by indisulam-treated B16-F10 cells” value [1] is reported as “triggers antigen-specific T cell activation”, the “growth inhibition with loss of β2-microglobulin in B16-F10” value ([2]; B2m CRISPR knockout vs control B16-F10, indisulam pretreatment) is reported as “rescued the growth inhibition” and the “in vivo growth inhibition with NK depletion” value ([2]; B16-F10 treated 1 μM 96 hours, NK cell depletion) is reported as “did not rescue cell growth”. For the same molecule, the “in vivo tumor growth inhibition in Rag2 recipients and with T cell depletion” value ([2]; B16-F10 treated 1 μM 96 hours, anti-CD4 and anti-CD8) was “rescued”.
